Laboratory results: patent US5256788A, “Moranoline derivatives and their production and the use of moranoline and its derivatives as a stabilizing agent for enzymes” (Nippon Shinyaku Co. Ltd., priority 1989, dated 1993)

Biological target: T1, immobilized CGTase (Geobacillus stearothermophilus, UniProt P31797)
T1 construct: purchased Hayashibara Biochemical Research Institute
T1 sequence (P31797 32-711): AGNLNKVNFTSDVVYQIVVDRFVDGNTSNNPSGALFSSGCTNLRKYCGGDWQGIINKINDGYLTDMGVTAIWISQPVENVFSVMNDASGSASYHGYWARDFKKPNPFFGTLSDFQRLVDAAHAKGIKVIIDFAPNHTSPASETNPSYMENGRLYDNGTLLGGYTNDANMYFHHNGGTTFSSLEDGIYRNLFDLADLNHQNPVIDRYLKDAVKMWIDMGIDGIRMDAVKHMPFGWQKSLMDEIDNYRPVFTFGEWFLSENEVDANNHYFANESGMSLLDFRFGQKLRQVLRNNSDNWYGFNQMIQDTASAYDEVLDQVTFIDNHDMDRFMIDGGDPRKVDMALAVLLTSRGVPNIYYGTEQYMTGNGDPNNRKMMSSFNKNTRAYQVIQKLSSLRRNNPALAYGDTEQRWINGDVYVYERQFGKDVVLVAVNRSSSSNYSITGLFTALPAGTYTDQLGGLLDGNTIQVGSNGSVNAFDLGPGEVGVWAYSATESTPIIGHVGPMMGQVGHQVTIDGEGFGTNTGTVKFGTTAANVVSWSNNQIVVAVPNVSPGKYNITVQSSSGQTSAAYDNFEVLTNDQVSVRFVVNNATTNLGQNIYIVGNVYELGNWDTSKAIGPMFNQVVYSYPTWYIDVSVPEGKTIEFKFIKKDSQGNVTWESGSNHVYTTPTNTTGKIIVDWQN
Experiment: Stabilization of immobilized CGTase in sugar transfer reaction solution of moranoline (enzyme activity retention rate)
Assay type: biochemical, Bacillus stearothermophilus
Settings: 2.5 w/v% moranoline and 25 w/v% Amicol No. 6L
Procedure: (§1) The immobilized CGTase, 10 ml, obtained in Reference Example 1 was added to 100 ml of aqueous solution with the pH being not adjusted containing 2.5 w/v% of moranoline and 25 w/v% of Amicol No. 6L [manufactured by Nichiden Chemical Co., Ltd.] followed by rotary shaking at 55° C. Thereafter, beads formed and (after a definite period of time as illustrated below) the beads (immobilized CGTase) were filtered through a glass filter. After thoroughly washing with water, the enzyme activity of the immobilized CGTase was determined as follows.
(§2) The beads (washed immobilized CGTase after a definite period of time at 55° C.), 1 ml, was added to 10 ml of aqueous solution with the pH being not adjusted containing 2.5 w/v% of moranoline and 25 w/v% of Amicol No. 6L followed by reacting at 55° C. for 24 hours. The reaction solution 3 ml, was passed through 7 ml of strongly acidic ion exchange resin DOWEX 50W×2 (H ). After thoroughly washing with water, elution was performed with 0.5N ammonia water. The eluate was concentrated to dryness under reduced pressure and the residue was dissolved in 3 ml of water. 10 μl of the solution was applied to and analyzed by high performance liquid chromatography to determine a concentration of the unreacted moranoline. The analytical conditions for high performance liquid chromatography were as follows: column (Nucleosil 5NH2, 5 μm, 4 mm i.d.×25 cm), developing solvent acetonitrile-water=70:30), detector (Hitachi 655A-30, RI detector), data processor (Hitachi D-2000). [formula]
Where the reaction progress rate was made 100 when rotary shaking started at 55° C., a relative reaction progress rate after a definite period of time passed was calculated according to the above equation. The thus obtained value was made an enzyme activity retention rate. The fact that the enzyme activity of the immobilized CGTase was stabilized by the moranoline in accordance with the present invention is clearly shown.
as §1, with “Example A” for “Example 1”, “C. After” for “C. Thereafter, beads formed and (after”, “time passed,” for “time as illustrated below)”, “follows. (Method for determination of enzyme activity of immobilized CGTase)” for “follows.”
as §2, with “24 hours” for “24 hours.”, “reaction liquid,” for “reaction solution”, “DOWEX 50W X 2 (H+).” for “DOWEX 50W×2 (H ).”, “mm i.d. X 25” for “mm i.d.×25”
Where the reaction progress rate was made 100 when rotary shaking started at 55° C., a relative reaction progress rate after a definite period of time passed was calculated according to the above equation. The thus obtained value was made an enzyme activity retention rate.

Q: How did the activity at 25000 µg/mL (0 h, day 0, 55° C., start made 100) turn out when `OC[C@H]1NC[C@H](O)[C@@H](O)[C@@H]1O` [moranoline] was run?
A: The activity at 25000 µg/mL was 100%.

Q: What about the activity at 25000 µg/mL (336 h, day 14, 55° C.) of the same compound?
A: Its activity at 25000 µg/mL is 100%.

Q: And the activity at 25000 µg/mL (504 h, day 21, 55° C.)?
A: Its activity at 25000 µg/mL is 103%.

Q: What about the activity at 25000 µg/mL (672 h, day 28, 55° C.) of the same compound?
A: Its activity at 25000 µg/mL is 102%.

Q: And the activity at 25000 µg/mL (888 h, day 37, 55° C.)?
A: The activity at 25000 µg/mL was 101%.

Q: What about the activity at 25000 µg/mL (1272 h, day 53, 55° C.) of the same compound?
A: Its activity at 25000 µg/mL is 102%.

Q: And the activity at 25000 µg/mL (1560 h, day 65, 55° C.)?
A: The activity at 25000 µg/mL was 104%.

Q: And the activity at 25000 µg/mL (1872 h, day 78, 55° C.)?
A: The activity at 25000 µg/mL was 101%.

Q: And the activity at 25000 µg/mL (2232 h, day 93, 55° C.)?
A: The activity at 25000 µg/mL was 99.7%.

Q: And the activity at 25000 µg/mL (2400 h, day 100, 55° C.)?
A: The activity at 25000 µg/mL was 100%.

Q: What about the activity at 25000 µg/mL (2856 h, day 119, 55° C.) of the same compound?
A: Its activity at 25000 µg/mL is 97%.

Q: And the activity at 25000 µg/mL (3360 h, day 140, 55° C.)?
A: Its activity at 25000 µg/mL is 100%.

Q: And the activity at 25000 µg/mL (3912 h, day 163, 55° C.)?
A: Its activity at 25000 µg/mL is 99.3%.

Q: And the activity at 25000 µg/mL (4272 h, day 178, 55° C.)?
A: The activity at 25000 µg/mL was 98.4%.

Q: And the activity at 25000 µg/mL (4752 h, day 198, 55° C.)?
A: The activity at 25000 µg/mL was 92.5%.

Q: What about the activity at 25000 µg/mL (5040 h, day 210, 55° C.) of the same compound?
A: Its activity at 25000 µg/mL is 95.6%.

Q: What about the activity at 25000 µg/mL (5544 h, day 231, 55° C.) of the same compound?
A: The activity at 25000 µg/mL was 92.5%.

Q: And the activity at 25000 µg/mL (5904 h, day 246, 55° C.)?
A: The activity at 25000 µg/mL was 93%.

Q: What about the activity at 25000 µg/mL (6288 h, day 262, 55° C.) of the same compound?
A: Its activity at 25000 µg/mL is 92.3%.

Q: What about the activity at 25000 µg/mL (6576 h, day 274, 55° C.) of the same compound?
A: The activity at 25000 µg/mL was 92.5%.

Q: What about the activity at 25000 µg/mL (6912 h, day 288, 55° C.) of the same compound?
A: Its activity at 25000 µg/mL is 91.7%.

Q: And the activity at 25000 µg/mL (7248 h, day 302, 55° C.)?
A: The activity at 25000 µg/mL was 92%.

Q: And the activity at 25000 µg/mL (7728 h, day 322, 55° C.)?
A: Its activity at 25000 µg/mL is 92.7%.

Q: And the activity at 25000 µg/mL (8136 h, day 339, 55° C.)?
A: Its activity at 25000 µg/mL is 91.5%.

Q: And the activity at 25000 µg/mL (8472 h, day 353, 55° C.)?
A: Its activity at 25000 µg/mL is 93.9%.

Q: And the activity at 25000 µg/mL (8784 h, day 366, 55° C.)?
A: Its activity at 25000 µg/mL is 90%.

Q: And the activity at 25000 µg/mL (9912 h, day 413, 55° C.)?
A: Its activity at 25000 µg/mL is 90%.
